Source: article PMC6509344, “Novel CMKLR1 Inhibitors for Application in Demyelinating Disease” (Scientific Reports, 2019)
Counter-ions that a name gives are not always drawn. Like-named read-outs stand apart in the source and are kept apart here.

Experiments:
[1] = molecular target: T1, CMKLR1 (Homo sapiens, UniProt Q99788); experiment: β-arrestin recruitment assay (chemerin-dependent β-arrestin2 signaling); type: cell-based; details: for IC50: CMKLR1-CHO-β-Arrestin cells, 20 nM chemerin, read-out: β-arrestin IC50 mean ± SEM (n)
T1 construct: host or cells: CHO-K1 (PathHunter CMKLR1 β-Arrestin cells)
T1 sequence (Q99788 1-373): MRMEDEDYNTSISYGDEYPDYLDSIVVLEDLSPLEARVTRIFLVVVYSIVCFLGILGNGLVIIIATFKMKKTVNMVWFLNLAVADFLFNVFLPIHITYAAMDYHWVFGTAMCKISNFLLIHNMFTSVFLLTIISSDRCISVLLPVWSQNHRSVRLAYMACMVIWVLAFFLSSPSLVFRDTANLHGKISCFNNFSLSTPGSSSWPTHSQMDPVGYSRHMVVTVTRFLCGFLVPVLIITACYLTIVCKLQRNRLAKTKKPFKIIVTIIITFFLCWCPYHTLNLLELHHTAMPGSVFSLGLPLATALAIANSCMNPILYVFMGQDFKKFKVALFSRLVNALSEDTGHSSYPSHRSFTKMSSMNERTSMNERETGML
Protocol: DiscoverX PathHunter® CHO-K1 CMKLR1 β-Arrestin Cells were grown in RPMI lacking phenol red (Gibco, Life Technologies), supplemented with L-glutamine, penicillin-streptomycin, sodium pyruvate, non-essential amino acid, BCS, hygromycin, and G418-sulfate. CMKLR1-CHO-β-Arrestin cells were seeded in 96 well plates at 1 × 10^5 cell/ml- 100 ul/well and incubated overnight at 37 °C, 5% CO2. […] (α-NETA and test compounds were reconstituted in DMSO; final DMSO concentration in each well was 0.1%). After 10 min, 5 ul of recombinant human chemerin (R&D Systems) at a final concentration of 20 nM was added to each well. Plates were incubated for 90 min at 37 °C, 5% CO2. Media was then removed and 50 ul of chemiluminescent substrate (Tropix Gal-Screen, Applied Biosciences) was added. The plate was incubated for 1 hr at RT and luminescence was detected using the SpectraMax M5 plate reader (Molecular Devices). For each independent trial (single replicate dose curves), data was normalized to the maximum signal per compound tested and an IC50 value was generated using GraphPad Prism software. The average IC50 value for n independent trials (as specified in the table) is reported.

[2] = tested on: (hu)CMKLR1 L1.2 cells; experiment: Chemotaxis assay toward huChemerin; type: cell-based, human; details: for IC50: (hu)CMKLR1 L1.2 cells migrating toward huChemerin, 2 h, read-out: Chemotaxis IC50 mean ± SEM (n)
Protocol: (hu)CMKLR1 transfectants (generated in L1.2 pre-B cell lymphoma cells) were grown in RPMI 1640 (Corning) supplemented with L-glutamine, penicillin-streptomycin, and 10% BCS and G418-sulfate (KSE Scientific). DiscoverX PathHunter® CHO-K1 CMKLR1 β-Arrestin Cells were grown in RPMI lacking phenol red (Gibco, Life Technologies), supplemented with L-glutamine, penicillin-streptomycin, sodium pyruvate, non-essential amino acid, BCS, hygromycin, and G418-sulfate.
(hu)CMKLR1 L1.2 cells at 1 × 10^6 cell/ml were treated with 5 mM sodium butyrate (Sigma) overnight to induce hCMKLR1 expression. The next day, cells were washed in migration media (RPMI + 0.5%BSA) and resuspended at 1.5–3 × 10^6 cell/ml. Cells were pre-incubated at RT for 10 min with various concentrations of α-NETA or test compounds (α-NETA and test compounds were reconstituted in DMSO; final DMSO concentration in each well was 0.1%). 100 ul of cells were added to the upper chamber of a 24-well transwell plate (5 um pore size, Costar). Cells were allowed to migrate toward huChemerin ([…] in migration media, bottom chamber) for 2 h, 37 °C, 5% CO2. The number of migrated cells was quantified by flow cytometry (BD LSR2), and live cells were distinguished based on FSC × SSC properties. The background for this assay was typically low with 0 cells migrating to the buffer alone. For each independent trial, data was normalized to the maximum migration per compound tested and an IC50 value was generated using GraphPad Prism software. The average IC50 value for n independent trials (as specified in the table) is reported.

[3] = tested on: C57BL/6 mice with EAE; experiment: Experimental autoimmune encephalomyelitis (EAE), MOG35–55/CFA immunization; type: in vivo, mouse; details: for Day of onset (Mean ± SEM) / Maximum Score (Mean ± SEM) / AUC (Mean ± SEM) of clinical score: Table 4, 10 mg/kg daily to D21, n = 8; for Maximum Score (Mean ± SEM): clinical score 0-5; for AUC (Mean ± SEM) of clinical score: mean clinical score x day
Protocol: C57BL/6 mice were purchased from The Jackson Laboratory. […] Animal experiments were conducted in accordance with approved Veterans Affairs, National Institutes of Health, and Institutional Animal Care and Use Committee guidelines.
CFA consisted of 5 mg/ml mTB (Mycobacterium-tuberculosis H37 Ra, BD Difco) in IFA (Incomplete Freund’s Adjuvant, Sigma). MOG35–55 was reconstituted at 2 mg/ml in PBS. Mice also received 200 ng pertussis toxin (List Biological Laboratories, Inc) by i.p. injection at the time of immunization and two days later. […] For a direct comparison to α-NETA, the DMF and compound doses were also 10 mg/kg in 10% captisol. Mice were monitored daily for clinical disease and scored (0 = normal/healthy, 1 = limp tail, 2 = hindlimb weakness, 3 = hindlimb paralysis, 4 = hindlimb and forelimb paralysis, 5 = moribund/dead).

[4] = Table 3 quaternary ammonium salts

For `C[N+](C)(C)CCS(=O)(=O)c1ccccc1` [Compound 35], the “activity in β-arrestin2 assay (in words)” value [1] was “inactive”.

In the case of `COc1cccc(C(=O)CCN(C)C)c1` [Compound 18], the IC50 ([1]; Table 2 tertiary amines) is reported as 64 µM.

`CN(C)CCC(=O)C1CCCCC1` [Compound 20] was tested, and the “activity in β-arrestin2 assay (in words)” value [1] was “complete loss of activity” and the IC50 ([1]; Table 2 tertiary amines) was over 100 µM.

`COc1ccc(C(=O)CC[N+](C)(C)C)c(OC)c1` [Compound 29] was tested, and the IC50 [1, 4] was 4.8 ± 1.6 µM and the IC50 [2] was 17.4 ± 2.2 µM.

Work on `COc1cc(OC)cc(C(=O)CC[N+](C)(C)C)c1` [Compound 31] yielded an IC50 [1, 4] of 6 ± 2.2 µM and an IC50 [2] of over 100 µM.

`COc1ccccc1C(=O)CC[N+](C)(C)C.[I-]` [Compound 26] was tested, and the “activity in β-arrestin2 assay (in words)” value [1] was “highly active”, the IC50 [1, 4] was 2.9 ± 1.6 µM and the “activity in chemotaxis assay (in words)” value [2] was “highly active”. The IC50 [2] was 7.2 µM.

For `COc1ccc(C(=O)CC[N+](C)(C)C)cc1.[I-]` [Compound 27], the “Day of onset (Mean ± SEM)” value [3] was 16.0 ± 0.9, the “Maximum Score (Mean ± SEM)” value [3] was 2.1 ± 0.1^¶ and the “AUC (Mean ± SEM) of clinical score” value [3] was 24.3 ± 4.2. The “activity in β-arrestin2 assay (in words)” value [1] was “highly active”, the IC50 [1, 4] was 1.9 ± 0.2 µM and the “activity in chemotaxis assay (in words)” value [2] was “highly active”. It also gave an IC50 [2] of 4.5 ± 1.5 µM.

`COc1ccc2cc(C(=O)CC[N+](C)(C)C)ccc2c1` [Compound 32] gave an IC50 [1, 4] of 1.5 ± 0.3 µM and an IC50 [2] of 20 ± 6.2 µM.

`COc1cccc(OC)c1C(=O)CC[N+](C)(C)C.[I-]` [Compound 30] was tested, and the “activity in β-arrestin2 assay (in words)” value [1] was “highly active”, the IC50 [1, 4] was 2.1 ± 1.1 µM and the “activity in chemotaxis assay (in words)” value [2] was “highly active”. The IC50 [2] was 6.8 µM.

In the case of `COc1ccc2ccccc2c1C(=O)CCN(C)C` [Compound 6], the “Day of onset (Mean ± SEM)” value [3] is reported as 14.5 ± 0.4, the “Maximum Score (Mean ± SEM)” value [3] is reported as 2.4 ± 0.2 and the “AUC (Mean ± SEM) of clinical score” value [3] is reported as 25.2 ± 4.0. The IC50 ([1]; Table 2 tertiary amines) was 6.2 ± 2.5 µM.

`COc1cccc(OC)c1C(=O)CCN(C)C` [Compound 19] was tested, and the IC50 ([1]; Table 2 tertiary amines) was 10.3 ± 4.5 µM.

Molecule `C[N+](C)(C)CCC(=O)c1ccc2ccccc2c1` [Compound 23] has an IC50 [1, 4] of 2.5 ± 0.9 µM and an IC50 [2] of 24.1 µM.

Work on `CCN(CC)CCC(=O)c1ccc2ccccc2c1` [Compound 8] yielded an IC50 ([1]; Table 2 tertiary amines) of 71.3 µM.

Work on `COc1ccc2ccccc2c1C(=O)CC[N+](C)(C)C` [Compound 33] yielded an IC50 [1, 4] of 0.6 ± 0.3 µM and an IC50 [2] of 10.7 µM.

With `COc1ccc2cc(C(=O)CCN(C)C)ccc2c1` [Compound 11] the IC50 ([1]; Table 2 tertiary amines) was over 100 µM.

With `CCCCN(C)CCC(=O)c1ccc2ccccc2c1` [Compound 10] the IC50 ([1]; Table 2 tertiary amines) was 44.5 µM.

`COc1ccccc1C(=O)CCN(C)C` [Compound 16] showed an IC50 ([1]; Table 2 tertiary amines) of over 100 µM.

`C[N+](C)(C)CCC(=O)C1CCCCC1` [Compound 25] showed an IC50 [1, 4] of 11.9 µM and an IC50 [2] of over 100 µM.

`COc1ccc(C(=O)CCN(C)C)cc1` [Compound 17] showed an IC50 ([1]; Table 2 tertiary amines) of over 100 µM.

`COc1cccc(C(=O)CC[N+](C)(C)C)c1` [Compound 28] showed an IC50 [1, 4] of 3.8 ± 1.7 µM and an IC50 [2] of 14.6 ± 4.8 µM.

With `C[N+](C)(C)CCC(=O)c1ccccc1.[I-]` [Compound 24] the IC50 [1, 4] was 5.6 ± 0.7 µM, the “activity in chemotaxis assay (in words)” value [2] was “did not show any activity” and the IC50 [2] was over 100 µM.

Work on `CN(C)CCC(=O)c1ccc2ccccc2c1` [Compound 7] yielded an IC50 ([1]; Table 2 tertiary amines) of 18.5 µM.

`CCN(C)CCC(=O)c1ccc2ccccc2c1` [Compound 9] showed an IC50 ([1]; Table 2 tertiary amines) of 39.6 µM.

With `COC(=O)/C=C/C(=O)OC` [Tecfidera, dimethyl fumarate, reference compound] the “day of EAE onset (mean ± SEM)” value ([3]; Fig. 1 study, 10 mg/kg daily in 10% captisol, s.c., d29 onset assumed for 2 α-NETA mice) was 14 ± 2 days.
